In ChEMBL document CHEMBL5113392, “Novel hybrid pyrrolidinedione-thiazolidinones as potential anticancer agents: Synthesis and biological evaluation” (Eur J Med Chem, 2022):

Columns and labels:
[1] = test system: NCI-H522; assay: Anticancer activity against human NCI-H522 cells assessed as lethality incubated for 48 hrs by SRB assay; format: functional; conditions: read-out: LC50 (the source's name)
[2] = test system: OVCAR-4; assay: Anticancer activity against human OVCAR-4 cells assessed as lethality incubated for 48 hrs by SRB assay; format: functional; conditions: read-out: LC50 (the source's name)
[3] = test system: SK-OV-3; assay: Anticancer activity against human SK-OV-3 cells assessed as total growth inhibition incubated for 48 hrs by SRB assay; format: functional
[4] = test system: TK-10; assay: Anticancer activity against human TK-10 cells assessed as lethality incubated for 48 hrs by SRB assay; format: functional; conditions: read-out: LC50 (the source's name)
[5] = test system: HOP-92; assay: Anticancer activity against human HOP-92 cells assessed as lethality incubated for 48 hrs by SRB assay; format: functional; conditions: read-out: LC50 (the source's name)
[6] = Selectivity index, ratio of GI50 for human HaCaT cells to GI50 for human MDA-MB-231 cells; format: toxicity; conditions: HaCaT cells versus MDA-MB-231 cells, read-out: RatioGI50
[7] = test system: RPMI-8226; assay: Anticancer activity against human RPMI-8226 cells assessed as growth inhibition incubated for 48 hrs by SRB assay; format: functional
[8] = test system: A549; assay: Anticancer activity against human A549 cells assessed as lethality incubated for 48 hrs by SRB assay; format: functional; conditions: read-out: LC50 (the source's name)
[9] = test system: RXF 393; assay: Anticancer activity against human RXF 393 cells assessed as inhibition of cell growth at 10 uM incubated for 48 hrs by SRB assay; format: functional; conditions: RXF 393, 48 h, values are per cent of control
[10] = test system: HOP-92; assay: Anticancer activity against human HOP-92 cells assessed as total growth inhibition incubated for 48 hrs by SRB assay; format: functional
[11] = test system: RPMI-8226; assay: Anticancer activity against human RPMI-8226 cells assessed as lethality incubated for 48 hrs by SRB assay; format: functional; conditions: read-out: LC50 (the source's name)
[12] = test system: UACC-62; assay: Anticancer activity against human UACC-62 cells assessed as lethality incubated for 48 hrs by SRB assay; format: functional; conditions: read-out: LC50 (the source's name)
[13] = test system: CAKI-1; assay: Anticancer activity against human CAKI-1 cells assessed as growth inhibition incubated for 48 hrs by SRB assay; format: functional
[14] = test system: Malme-3M; assay: Anticancer activity against human Malme-3M cells assessed as growth inhibition incubated for 48 hrs by SRB assay; format: functional
[15] = test system: MDA-MB-231; assay: Anticancer activity against human MDA-MB-231 cells assessed as cell growth inhibition incubated for 72 hrs by MTT assay; format: functional
[16] = test system: UACC-257; assay: Anticancer activity against human UACC-257 cells assessed as lethality incubated for 48 hrs by SRB assay; format: functional; conditions: read-out: LC50 (the source's name)
[17] = test system: BT-549; assay: Anticancer activity against human BT-549 cells assessed as growth inhibition incubated for 48 hrs by SRB assay; format: functional
[18] = test system: SF-268; assay: Anticancer activity against human SF-268 cells assessed as growth inhibition incubated for 48 hrs by SRB assay; format: functional
[19] = test system: HCC 2998; assay: Anticancer activity against human HCC 2998 cells assessed as lethality incubated for 48 hrs by SRB assay; format: functional; conditions: read-out: LC50 (the source's name)
[20] = test system: OVCAR-3; assay: Anticancer activity against human OVCAR-3 cells assessed as total growth inhibition incubated for 48 hrs by SRB assay; format: functional
[21] = test system: KM12; assay: Anticancer activity against human KM12 cells assessed as growth inhibition incubated for 48 hrs by SRB assay; format: functional
[22] = test system: Malme-3M; assay: Anticancer activity against human Malme-3M cells assessed as lethality incubated for 48 hrs by SRB assay; format: functional; conditions: read-out: LC50 (the source's name)
[23] = test system: MDA-MB-435; assay: Anticancer activity against human MDA-MB-435 cells assessed as growth inhibition incubated for 48 hrs by SRB assay; format: functional
[24] = test system: Lymphocyte; assay: Induction of morphological changes in mitogen activated human peripheral blood lymphocytes assessed as increase in number of single cells incubated for 24 hrs by Hoechst 33258 and propidium iodide staining based fluorescence microscopy; format: toxicity, cell-based
[25] = test system: OVCAR-5; assay: Anticancer activity against human OVCAR-5 cells assessed as growth inhibition incubated for 48 hrs by SRB assay; format: functional
[26] = test system: SW-620; assay: Anticancer activity against human SW-620 cells assessed as total growth inhibition incubated for 48 hrs by SRB assay; format: functional
[27] = test system: HCC 2998; assay: Anticancer activity against human HCC 2998 cells assessed as growth inhibition incubated for 48 hrs by SRB assay; format: functional
[28] = test system: NCI-H226; assay: Anticancer activity against human NCI-H226 cells assessed as growth inhibition incubated for 48 hrs by SRB assay; format: functional
[29] = test system: PC-3; assay: Anticancer activity against human PC-3 cells assessed as total growth inhibition incubated for 48 hrs by SRB assay; format: functional
[30] = test system: UO-31; assay: Anticancer activity against human UO-31 cells assessed as lethality incubated for 48 hrs by SRB assay; format: functional; conditions: read-out: LC50 (the source's name)
[31] = test system: BT-549; assay: Anticancer activity against human BT-549 cells assessed as total growth inhibition incubated for 48 hrs by SRB assay; format: functional
[32] = test system: MDA-MB-231; assay: Anticancer activity against human MDA-MB-231 cells assessed as growth inhibition incubated for 48 hrs by SRB assay; format: functional
[33] = test system: A549; assay: Anticancer activity against human A549 cells assessed as cell growth inhibition incubated for 72 hrs by MTT assay; format: functional
[34] = test system: HCT-116; assay: Anticancer activity against human HCT-116 cells assessed as lethality incubated for 48 hrs by SRB assay; format: functional; conditions: read-out: LC50 (the source's name)
[35] = test system: NCI/ADR-RES; assay: Anticancer activity against human NCI/ADR-RES cells assessed as lethality incubated for 48 hrs by SRB assay; format: functional; conditions: read-out: LC50 (the source's name)
[36] = test system: NCI/ADR-RES; assay: Anticancer activity against human NCI/ADR-RES cells assessed as growth inhibition incubated for 48 hrs by SRB assay; format: functional
[37] = test system: HL-60; assay: Anticancer activity against human HL-60 cells assessed as total growth inhibition incubated for 48 hrs by SRB assay; format: functional
[38] = test system: U-251; assay: Anticancer activity against human U-251 cells assessed as growth inhibition incubated for 48 hrs by SRB assay; format: functional
[39] = test system: SF-295; assay: Anticancer activity against human SF-295 cells assessed as lethality incubated for 48 hrs by SRB assay; format: functional; conditions: read-out: LC50 (the source's name)
[40] = test system: HT-29; assay: Anticancer activity against human HT-29 cells assessed as total growth inhibition incubated for 48 hrs by SRB assay; format: functional
[41] = test system: CAKI-1; assay: Anticancer activity against human CAKI-1 cells assessed as lethality incubated for 48 hrs by SRB assay; format: functional; conditions: read-out: LC50 (the source's name)
[42] = test system: NCI-H23; assay: Anticancer activity against human NCI-H23 cells assessed as lethality incubated for 48 hrs by SRB assay; format: functional; conditions: read-out: LC50 (the source's name)
[43] = test system: RXF 393; assay: Anticancer activity against human RXF 393 cells assessed as total growth inhibition incubated for 48 hrs by SRB assay; format: functional
[44] = test system: NCI-H23; assay: Anticancer activity against human NCI-H23 cells assessed as growth inhibition incubated for 48 hrs by SRB assay; format: functional
[45] = test system: MDA-MB-231; assay: Anticancer activity against human MDA-MB-231 cells assessed as lethality incubated for 48 hrs by SRB assay; format: functional; conditions: read-out: LC50 (the source's name)
[46] = Selectivity index, ratio of GI50 for human HaCaT cells to GI50 for human HCT116-p53-null cells; format: toxicity; conditions: HaCaT cells versus HCT116-p53-null cells, read-out: RatioGI50
[47] = test system: NCI-H522; assay: Anticancer activity against human NCI-H522 cells assessed as total growth inhibition incubated for 48 hrs by SRB assay; format: functional
[48] = test system: Salmon testes DNA; assay: Displacement of methyl green from salmon sperm DNA at 1 uM measured after 2 hrs by fluorescence plate reader method relative to control; format: nucleic-acid assay; conditions: Salmo salar
[49] = test system: SR; assay: Anticancer activity against human SR cells assessed as growth inhibition incubated for 48 hrs by SRB assay; format: functional

O=C1CC(N2C(=O)/C(=C/C(Cl)=C/c3ccc([N+](=O)[O-])cc3)SC2=S)C(=O)N1c1ccc(O)cc1 (stereo not drawn)
CC50 [1]: 9.65 µM | CC50 [2]: 41.9 µM | TGI [3]: 9.26 µM | CC50 [4]: 7.46 µM | CC50 [5]: 8.54 µM | selectivity ratio [6]: 11.9 | GI50 [7]: 0.295 µM | CC50 [8]: 50.8 µM | growth, % of control at 10 µM [9]: -70.5% | TGI [10]: 3.72 µM | CC50 [11]: > 100 µM | CC50 [12]: 6.86 µM | GI50 [13]: 1.15 µM | GI50 [14]: 2.31 µM | GI50 [15]: 6.2 µM | CC50 [16]: 44.2 µM | GI50 [17]: 2.03 µM | GI50 [18]: 2.43 µM | CC50 [19]: 5.76 µM | TGI [20]: 1.96 µM | GI50 [21]: 1.83 µM | CC50 [22]: 21 µM | GI50 [23]: 2.01 µM | Activity [24]: Toxic | GI50 [25]: 1.91 µM | TGI [26]: 2.28 µM | GI50 [27]: 1.48 µM | GI50 [28]: 2.41 µM | TGI [29]: 2.87 µM | CC50 [30]: 5.78 µM | TGI [31]: 4.21 µM | GI50 [32]: 2.14 µM | GI50 [33]: 7.25 µM | CC50 [34]: 5.22 µM | CC50 [35]: > 100 µM | GI50 [36]: 2.13 µM | TGI [37]: 9.57 µM | GI50 [38]: 0.597 µM | CC50 [39]: 5.54 µM | TGI [40]: 8.78 µM | CC50 [41]: 5.12 µM | CC50 [42]: 7.94 µM | TGI [43]: 3.22 µM | GI50 [44]: 1.56 µM | CC50 [45]: 15.9 µM | selectivity ratio [46]: 13 | TGI [47]: 4.23 µM | Activity [48]: 1.4% | GI50 [49]: 0.394 µM

O=C1CC(N2C(=O)/C(=C/C(Cl)=C/c3ccc([N+](=O)[O-])cc3)SC2=S)C(=O)N1c1ccc(Cl)cc1 (stereo not drawn)
CC50 [1]: 14.1 µM | CC50 [2]: > 100 µM | TGI [3]: > 100 µM | CC50 [4]: > 100 µM | CC50 [5]: > 100 µM | selectivity ratio [6]: 15.5 | GI50 [7]: 0.303 µM | CC50 [8]: > 100 µM | growth, % of control at 10 µM [9]: -64.1% | TGI [10]: 6.79 µM | CC50 [11]: 71 µM | CC50 [12]: 12 µM | GI50 [13]: 1.13 µM | GI50 [14]: 3.09 µM | GI50 [15]: 6.45 µM | CC50 [16]: > 100 µM | GI50 [17]: 1.75 µM | GI50 [18]: 3.07 µM | CC50 [19]: 5.76 µM | TGI [20]: 2.62 µM | GI50 [21]: 1.96 µM | CC50 [22]: > 100 µM | GI50 [23]: 1.65 µM | Activity [24]: Toxic | GI50 [25]: 2.04 µM | TGI [26]: 3.9 µM | GI50 [27]: 1.59 µM | GI50 [28]: 1.92 µM | TGI [29]: 4.15 µM | CC50 [30]: > 100 µM | TGI [31]: 3.74 µM | GI50 [32]: 3.75 µM | GI50 [33]: 63.9 µM | CC50 [34]: 6.85 µM | CC50 [35]: > 100 µM | GI50 [36]: 1.01 µM | TGI [37]: 8.86 µM | GI50 [38]: 0.477 µM | CC50 [39]: 7.51 µM | TGI [40]: 4.6 µM | CC50 [41]: 9.52 µM | CC50 [42]: 15 µM | TGI [43]: 2.72 µM | GI50 [44]: 1.64 µM | CC50 [45]: > 100 µM | selectivity ratio [46]: 10.7 | TGI [47]: 4.36 µM | Activity [48]: 4.3% | GI50 [49]: 0.544 µM
